Test results from patent publication US12565520B2, “Chemically-stabilized allosteric modulators of leucine-rich repeat kinase 2 (LRRK2)” (UNIVERSITY OF GEORGIA RESEARCH FOUNDATION, INC., priority 2020, dated 2026).
“Also recorded” adds a separate entry of the source.

How the values were obtained:
LRRK2 dimerization = target: T1, LRRK2 dimerization (Homo sapiens, UniProt Q5S007); experiment: In vitro dimerization assay (co-immunoprecipitation of GFP- and Strep-tagged LRRK2); format: biochemical; conditions: 10 μM peptide overnight, HEK293 lysates
T1 construct: co-transfecting HEK293 cells with GFP-tagged and strep-tagged full-length LRRK2; expressed in transfected cells; host or cells: HEK293
Method: In vitro dimerization assay. HEK293 cells were co-transfected using JetPEI reagent (Polyplus transfection) with pcDNA3.1_GFP.LRRK2 and pDEST(N)SF.LRRK2. Cells were cultivated for 48 hours. The cells were then lysed with 200 μL ice-cold lysis buffer (10 mM Tris/HCl pH 7.5; 150 mM NaCl; 0.5 mM EDTA; 0.5% NP-40), complete EDTA-free protease inhibitor cocktail (Sigma-Aldrich Cat #11836170001) and Protease Inhibitor Cocktail, Sigma (cat. no. P-2714). The mixture was incubated and rotated on ice for 30 minutes with extensively pipetting every 10 minutes. Lysate was cleared by centrifugation for 10 min at 14000 g for 10 min at 4° C. The supernatant was transferred to a precooled tube and 300 μL dilution buffer (same as lysis buffer without NP-40) was added to the lysate. Peptides were added to a final concentration of 10 μM and the mixture was allowed to rotate at 4° C. overnight. GFP-LRRK2 was immunoprecipitated with Magnetic GFP nanotrap beads (ChromoTek). […] The membranes were coated with enhanced chemiluminescent (ECL) reagent (WesternSure PREMIUM, Li-COR biosciences), and proteins were detected by C-Digit Imaging System (Li-COR Biosciences).
To determine whether LCIP1 and LRIP4 could effectively disrupt LRRK2 dimerization, we monitored disruption of dimerization using two different tagged versions of LRRK2. […]

[1] = tested on: LRRK2 dimers (WT/WT, WT/G2019S, G2019S/G2019S); experiment: Proximity biotinylation ELISA-based LRRK2 dimerization assay in cells; format: cell-based; conditions: for LRRK2 dimerization in cells (FIG. 8): 0.1, 1 and 10 μM fluorescently labeled peptide; for LRRK2 dimerization, wild-type homodimers and wild-type/G2019S heterodimers: HEK293 cells
From the text: Proximity biotinylation of LRRK2. To purify LRRK2 dimers, we relied on the proximity biotinylation technique recently described (E. Leandrou et al., Kinase activity of mutant LRRK2 manifests differently in hetero-dimeric vs. homo-dimeric complexes. Biochem J 476, 559-579 (2019); and M. Fernandez-Suarez, T. S. Chen, A. Y. Ting, Protein-protein interaction detection in vitro and in cells by proximity biotinylation. J Am Chem Soc 130, 9251-9253 (2008)). Briefly, two cDNAs were created encoding LRRK2 fusions with biotin ligase (BirA; N-term, Flag-tagged) and an acceptor peptide (AP, N-term; c-Myc tagged), and over-expressed in HEK293T cells grown in biotin-depleted medium (OptiMEM+2% FBS). The following day, the cells were treated with the indicated concentrations of the stapled peptides: LRIP4 and LCIP1. Stock peptides, fluorescently tagged, were diluted in serum-free medium, and added every 24 hours after transfection. After 48 hours following initiation of treatment (i.e. 72 hr of total expression), the cells were extensively washed in PBS, given a brief biotin pulse (50 μM, 5 min, 37° C.), followed by another 3× washes in PBS, centrifuged and the pellet snap frozen in a dry-ice/MeOH bath. Following lysis, extracts were diluted in TBST/BSA (10 mM Tris HCl, pH 7.6; 100 mM NaCl; 0.1% Triton X-100; 1% BSA) and 2.5 μg of protein loaded in parallel ELISA plates, coated with streptavidin (SA; to capture biotinylated LRRK2 dimers) and anti-LRRK2 (to quantify LRRK2 over-expression). To detect and quantify dimeric LRRK2, SA-coated plates were incubated with HRP-conjugated anti-Flag antibodies (1 hour, room temperature). Since the biotin tag is only present on AP-LRRK2 fusions, and the flag epitope tag is located on the BirA-LRRK2 fusion, by using HRP-Flag as our detector reagent, we are specifically labeling dimeric LRRK2 present in the ELISA plates. On the parallel anti-LRRK2 coated plates (clone c41-2), total over-expressed LRRK2 was quantified using HRP-LRRK2 antibodies (clone N241) and used to normalize the relative amounts of dimeric LRRK2. The following LRRK2 dimers were assessed: WT/WT homodimers, WT/G2019S, and G2019S/G2019S homodimers.
In this assay, HEK293T cells expressing either wild-type or G2019S mutants of LRRK2 fusions, either with the biotin ligase BirA or the acceptor peptide AP, were treated with increasing concentrations (0.1, 1, and 10 μM) of each fluorescently labeled peptide.

[2] = tested on: endogenous LRRK2 kinase activity as Rab10 phosphorylation; experiment: Rab10 phosphorylation in untransfected A549 cells; format: cell-based; conditions: 10 μM
From the text: To test whether disruption of LRRK2 dimerization can also attenuate Rab phosphorylation, a hyperactive LRRK2 mutant (R1441G) and Rab29 were overexpressed in HEK293T cells (Z. Liu et al., LRRK2 phosphorylates membrane-bound Rabs and is activated by GTP-bound Rab7L1 to promote recruitment to the trans-Golgi network. Hum Mol Genet 27, 385-395 (2018); and E. Purlyte et al., Rab29 activation of the Parkinson's disease-associated LRRK2 kinase. The EMBO Journal 37, 1-18 (2018)). Overexpression of Rab29 induces recruitment of LRRK2 to the trans-golgi network (TGN) and activates it there. After 24-hour transfection, cells were then treated with 10 μM peptide for 15 hours. […] To test the effect of the dimerization inhibitors on endogenous LRRK2 function, we performed a similar experiment using non-transfected A549 cells which natively express detectable levels of both LRRK2 and Rab10.

T1 sequence (Q5S007 whole entry): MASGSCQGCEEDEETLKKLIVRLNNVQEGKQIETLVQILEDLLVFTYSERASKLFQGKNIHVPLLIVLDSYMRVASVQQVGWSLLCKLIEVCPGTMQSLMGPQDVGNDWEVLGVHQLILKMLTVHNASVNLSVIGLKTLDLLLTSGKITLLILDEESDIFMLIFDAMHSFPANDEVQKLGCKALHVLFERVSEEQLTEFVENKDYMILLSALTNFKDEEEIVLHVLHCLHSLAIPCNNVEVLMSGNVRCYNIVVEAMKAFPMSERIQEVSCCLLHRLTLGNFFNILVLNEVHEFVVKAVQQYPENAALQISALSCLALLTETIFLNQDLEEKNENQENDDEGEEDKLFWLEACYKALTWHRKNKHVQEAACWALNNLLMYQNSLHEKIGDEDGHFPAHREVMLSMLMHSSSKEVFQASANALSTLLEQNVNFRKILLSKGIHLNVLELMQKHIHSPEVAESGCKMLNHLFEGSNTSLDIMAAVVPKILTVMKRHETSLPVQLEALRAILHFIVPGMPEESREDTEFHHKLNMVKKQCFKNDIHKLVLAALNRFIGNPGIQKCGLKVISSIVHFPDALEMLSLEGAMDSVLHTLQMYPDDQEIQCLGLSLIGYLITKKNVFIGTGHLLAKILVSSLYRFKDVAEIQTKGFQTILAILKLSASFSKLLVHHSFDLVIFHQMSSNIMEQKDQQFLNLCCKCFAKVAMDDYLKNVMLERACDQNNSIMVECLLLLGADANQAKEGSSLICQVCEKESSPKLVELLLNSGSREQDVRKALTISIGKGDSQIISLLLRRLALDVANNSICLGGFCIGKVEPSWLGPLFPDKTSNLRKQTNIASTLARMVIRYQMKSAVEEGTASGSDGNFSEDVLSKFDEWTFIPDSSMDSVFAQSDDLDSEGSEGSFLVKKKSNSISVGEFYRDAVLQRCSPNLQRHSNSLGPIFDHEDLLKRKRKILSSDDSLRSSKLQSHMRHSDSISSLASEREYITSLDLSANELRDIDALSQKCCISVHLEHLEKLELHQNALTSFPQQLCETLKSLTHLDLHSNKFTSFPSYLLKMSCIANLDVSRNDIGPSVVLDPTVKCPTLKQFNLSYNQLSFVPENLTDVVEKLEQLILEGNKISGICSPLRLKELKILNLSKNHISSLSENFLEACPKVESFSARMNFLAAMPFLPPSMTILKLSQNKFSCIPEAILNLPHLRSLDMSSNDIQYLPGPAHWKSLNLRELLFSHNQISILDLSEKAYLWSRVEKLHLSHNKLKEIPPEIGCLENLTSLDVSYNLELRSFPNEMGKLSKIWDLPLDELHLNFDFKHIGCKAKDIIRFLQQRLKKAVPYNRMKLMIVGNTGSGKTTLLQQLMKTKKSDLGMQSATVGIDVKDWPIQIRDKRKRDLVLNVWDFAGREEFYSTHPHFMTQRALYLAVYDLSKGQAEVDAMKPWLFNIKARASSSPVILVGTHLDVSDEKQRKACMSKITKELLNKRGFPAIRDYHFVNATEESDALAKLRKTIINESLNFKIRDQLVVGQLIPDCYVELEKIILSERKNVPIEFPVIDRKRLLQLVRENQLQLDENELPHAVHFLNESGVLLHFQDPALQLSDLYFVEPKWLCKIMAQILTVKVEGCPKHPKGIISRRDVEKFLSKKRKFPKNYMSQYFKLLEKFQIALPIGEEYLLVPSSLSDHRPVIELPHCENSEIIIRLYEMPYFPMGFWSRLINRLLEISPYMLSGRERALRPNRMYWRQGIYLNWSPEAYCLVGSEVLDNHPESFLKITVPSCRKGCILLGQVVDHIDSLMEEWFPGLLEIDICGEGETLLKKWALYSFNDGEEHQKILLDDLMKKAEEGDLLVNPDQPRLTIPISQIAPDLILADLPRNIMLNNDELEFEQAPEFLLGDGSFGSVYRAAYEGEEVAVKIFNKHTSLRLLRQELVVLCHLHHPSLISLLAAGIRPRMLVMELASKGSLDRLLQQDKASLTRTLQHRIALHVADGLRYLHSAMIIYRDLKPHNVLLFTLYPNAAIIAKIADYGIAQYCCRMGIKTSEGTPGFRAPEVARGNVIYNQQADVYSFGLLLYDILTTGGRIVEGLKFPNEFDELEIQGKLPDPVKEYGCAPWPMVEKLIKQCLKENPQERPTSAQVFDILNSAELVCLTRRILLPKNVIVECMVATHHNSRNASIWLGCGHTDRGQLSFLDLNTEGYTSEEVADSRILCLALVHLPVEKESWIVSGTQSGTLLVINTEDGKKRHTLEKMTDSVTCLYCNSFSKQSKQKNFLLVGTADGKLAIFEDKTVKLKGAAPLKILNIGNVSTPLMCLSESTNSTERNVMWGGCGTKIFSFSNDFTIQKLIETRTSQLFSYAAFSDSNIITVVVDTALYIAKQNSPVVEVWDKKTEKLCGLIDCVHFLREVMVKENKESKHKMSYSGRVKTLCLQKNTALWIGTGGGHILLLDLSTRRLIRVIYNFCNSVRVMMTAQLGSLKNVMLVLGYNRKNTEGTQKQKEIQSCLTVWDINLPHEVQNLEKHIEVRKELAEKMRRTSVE
LRRK2 dimers (WT/WT, WT/G2019S, G2019S/G2019S), sequence (Q5S007 1328-1878 limits assumed, stated change not applied): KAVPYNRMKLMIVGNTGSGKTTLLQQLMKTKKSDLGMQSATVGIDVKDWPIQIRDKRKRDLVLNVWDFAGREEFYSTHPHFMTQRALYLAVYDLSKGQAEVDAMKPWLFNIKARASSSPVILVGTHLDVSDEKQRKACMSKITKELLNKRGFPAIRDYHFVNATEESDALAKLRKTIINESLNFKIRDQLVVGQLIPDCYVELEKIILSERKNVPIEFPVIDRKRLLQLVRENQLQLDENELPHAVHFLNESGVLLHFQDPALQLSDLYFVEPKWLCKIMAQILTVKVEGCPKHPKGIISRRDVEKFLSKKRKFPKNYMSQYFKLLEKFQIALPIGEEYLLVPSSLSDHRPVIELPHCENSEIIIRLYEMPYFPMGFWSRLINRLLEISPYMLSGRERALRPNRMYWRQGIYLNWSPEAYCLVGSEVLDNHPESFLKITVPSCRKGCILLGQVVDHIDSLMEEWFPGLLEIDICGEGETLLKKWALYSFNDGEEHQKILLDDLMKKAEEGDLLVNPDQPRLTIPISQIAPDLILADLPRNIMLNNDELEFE
Method for HEK293 cells: Flow Cytometry. HEK293 cells were plated in 96-well plates (50 000/well) and allowed to grow 24 h in complete growth medium (DMEM supplemented with 10% fetal bovine serum, L-glutamine). DMEM was carefully aspirated and cells were treated with fresh pre-warmed complete growth medium supplemented with 10 μM of peptide or DMSO. After 6 hours, cells were analyzed on Beckman Cytoflex flow cytometer (Beckman Coulter). Using forward and side scattered light, a gate for intact, non-aggregated cells was defined and the fluorescence of 10,000 events was collected within this cell gate. The fluorescent channel for FITC (488-nm excitation [ex], 525-nm emission [em]) was used. Data was analyzed using FlowJo software and the reported fluorescent intensity values represent arithmetic means of the results determined for the analyzed cells.

**Q.** Which results are given for “COR-domain stapled peptide formed from SEQ ID NO. 16 KGEGEXLLKXWK, X = (S)-2-(4′-pentenyl)alanine; PEG3 linker, FAM or biotin label (hydrocarbon staple; PEG3 linker; FAM or biotin; COR domain peptide; (6)..(6) Xaa is (S)-2-(4′-pentenyl)alanine; (10)..(10) Xaa is (S)-2-(4′-pentenyl)alanine) [LCIP1]”?
**A.** LRRK2 dimerization (Strep-LRRK2 co-precipitated with GFP-LRRK2) (LRRK2 dimerization): reduced the co-immunoprecipitation of the two LRRK2 proteins; also recorded: able to disrupt LRRK2 dimerization; also recorded: reduced dimerization; also recorded: inhibitory effect on LRRK2; LRRK2 dimerization in cells (FIG. 8) [1]: failed to consistently lead to a reduction in LRRK2 dimerization; also recorded: no statistically significant effect on dimerization; LRRK2 dimerization, wild-type homodimers and wild-type/G2019S heterodimers [1]: no statistically significant effects on dimerization; dose dependence of cell uptake by flow cytometry (HEK293 cells): dose-dependent uptake

**Q.** For “Roc-domain stapled peptide formed from SEQ ID NO. 6 DEKQRKAC(Nle)SKITKEXLNKX, X = (S)-2-(4′-pentenyl)alanine; PEG3 linker, FAM or biotin label (DEKQRKACXSKITKEXLNKX; hydrocarbon staple; Nle; PEG3 linker; FAM or biotin; ROC domain petide; (9)..(9) Xaa is norleucine; (16)..(16) Xaa is (S)-2-(4′-pentenyl)alanine; (20)..(20) Xaa is (S)-2-(4′-pentenyl)alanine) [LRIP4]”, which “LRRK2 dimerization (Strep-LRRK2 co-precipitated with GFP-LRRK2)” value (LRRK2 dimerization) is on record?
**A.** reduced the co-immunoprecipitation of the two LRRK2 proteins; also recorded: able to disrupt LRRK2 dimerization with LRIP4 having the most pronounced effect; also recorded: reduced dimerization; also recorded: inhibitory effect on LRRK2

**Q.** What about the “LRRK2 dimerization in cells (FIG. 8)” value [1] of the same substance?
**A.** effectively disrupts LRRK2 dimerization in cells

**Q.** And the “LRRK2 dimerization, G2019S/G2019S homodimers and G2019S/wild-type heterodimers” value ([1]; HEK293(T) cells, 10 mM peptide as printed)?
**A.** statistically significant reduction in both G2019S/G2019S and G2019S/wild-type LRRK2 dimers; also recorded: inhibit dimerization of both wild-type/G2019S LRRK2 heterodimers or G2019S LRRK2 homodimers

**Q.** What about the “LRRK2 dimerization, wild-type homodimers and wild-type/G2019S heterodimers” value [1] of the same substance?
**A.** inhibit dimerization of both wild-type LRRK2 homodimers and wild-type/G2019S LRRK2 heterodimers

**Q.** And the “Rab10 phosphorylation by endogenous LRRK2” value [2]?
**A.** significant reduction in phosphorylation of Rab10; also recorded: inhibition of Rab10 phosphorylation

**Q.** What about the “dose dependence of cell uptake by flow cytometry” value (HEK293 cells) of the same substance?
**A.** dose-dependent uptake
